Experimental data as given in article PMC8443696, “Structural determinants and regulation of spontaneous activity in GABAA receptors” (Nature Communications, 2021).
“And” between values parts separate entries of the source, which are not always exact repeats. Identical values can stand only once. Like-named read-outs stand apart in the source and are kept apart here.

Assays:
α4β2δ receptor = tested on: T1, α4β2δ receptor; experiment: Quantification of spontaneous activity (Ispont) in HEK cells, whole-cell patch clamp; type: cell-based, mouse
T1 construct: expressed in transfected cells; host or cells: HEK 293
From the text: (§1) All components were obtained from Life Technologies.
(§2) Currents were acquired with Clampex ver.
(§3) Cells were voltage clamped at −40 mV.
(§4) For assessment of the efficacy of allosteric modulators on spontaneous activity, compounds were briefly applied (3–5 s) to achieve steady-state currents (IMod). […] The IMod was summed with IPTX (or subtracted for inhibitory modulators) and the Ispont calculated, as described by Eq. (2):2 Ispont(%)=[(IPTX+IMod)/(IPTX+IMax)]×100……………………………………

[1] = tested on: dentate gyrus granule cells (DGGCs); experiment: Tonic current in acute hippocampal brain slices; type: cell-based, rat; conditions: for Change in holding current: DGGCs;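 on tonic current change with +PTX, Fig. 10a: Holding current density change on antagonist application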;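 on tonic current change with Gabazine, Fig. 10a: Holding current density change on antagonist application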
From the text: (§5) Adolescent male rats (P21–P28) were anaesthetised by inhalation with 5% isoflurane before dispatch and isolation of the brain in accordance with the United Kingdom Animals (Scientific Procedures) Act 1986. The brain was immersed in an ice-cold slicing solution containing (mM): 85 NaCl, 2.5 KCl, 1.25 NaH2PO4, 26 NaHCO3, 75 sucrose, 1 CaCl2, 4 MgCl2, 25 glucose and 2 kynurenic acid, (pH 7.4 when bubbled with 95% O2/5% CO2). Horizontal (hippocampal) and coronal (thalamic) sections (all 350 µm thick) were cut using a Leica VT1200S vibratome before transfer to a holding chamber at 37 °C. The solution was slowly exchanged over 1 h with aCSF containing (mM): 125 NaCl, 2.5 KCl, 1.25 NaH2PO4, 26 NaHCO3, 2 CaCl2, 1 MgCl2, 25 glucose and 2 kynurenic acid (pH 7.4 when bubbled with 95% O2/5% CO2) before maintaining the slices at room temperature prior to recording.
as §2
(§6) Recordings from hippocampal cultures used ~3–5 MΩ electrodes filled with an internal solution consisting of (mM): 140 CsCl, 2 NaCl, 10 HEPES, 5 EGTA, 2 MgCl2, 0.5 CaCl2, 2 Na2ATP, 0.5 Na2GTP, 2 QX-314, pH 7.3. Osmolarity was 300 ± 20 mOsm/L. Cells were perfused in the same Kreb’s solution described above, except for the addition of 2 mM kynurenic acid. Cells were voltage clamped at −60 mV. For current clamp, cells were recorded using an internal electrode solution consisting of (mM): 137 potassium gluconate, 3 KCl, 10 HEPES, 5 EGTA, 0.5 CaCl2, 2 MgCl2, 2 Na2ATP and 0.5 Na2GTP, pH 7.3. Osmolarity was 300 ± 20 mOsm/L. The external solution was as described for voltage-clamp experiments and the calculated junction potential was ~15 mV. Current was injected to hold cells at −70 mV if required. For slice recordings, slices were perfused in the aCSF described above, and the internal solution was the same as that used for cultured neuronal voltage-clamp recordings.

[2] = tested on: dorsal lateral geniculate nucleus (dLGN) thalamic relay neurons; experiment: Tonic current in acute thalamic brain slices; type: cell-based, rat;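 on tonic current change with +PTX, Fig. 10b: Holding current density change on antagonist application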;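 on tonic current change with Gabazine, Fig. 10b: Holding current density change on antagonist application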
From the text: as §5, §2, §6

α4β3δ GABAARs = tested on: T2, α4β3δ GABAARs; experiment: Single-channel recording of spontaneous currents, outside-out patches of HEK cells; type: cell-based, mouse; conditions: absence of GABA; for Area A1 of open time distribution (row head printed 'thdoc t2', r12) / Area A2 of open time distribution (thdoc t2, r14): 100 nM THDOC, individual patches
T2 construct: expressed in transfected cells; host or cells: HEK cells (outside-out patches)
Method: To limit ion channel density in individual patches, HEK cells were transfected with 5 ng α4, β3, δ and eGFP cDNAs. Resulting spontaneous single-channel currents were digitised at a sampling rate of 20 kHz and filtered at 5 kHz with a 4-pole Bessel filter (24 dB per octave). A fixed time resolution of 80 μs was used as a preset. Recordings were undertaken using thick-walled borosilicate patch pipettes (6–10 MΩ) filled with a solution containing (mM): 145 CsCl, 2.5 NaCl, 10 HEPES, 1 EGTA, 4 MgATP, pH 7.3. Osmolarity was 300 ± 20 mOsm/L. Cells were perfused with an external solution consisting of (mM): 145 NaCl, 2.5 KCl, 1 CaCl2, 1 MgCl2, 10 HEPES, 10 glucose, pH 7.3. Prior control recordings were obtained using untransfected HEK cells to identify endogenous channel currents.
Channel currents were digitally low pass filtered at 1–2 kHz prior to analysis. […] Channel dwell states were identified using a threshold cursor method. This state transition detection method for open and shut events was used to assemble an idealised record of the digitised data. Open times affected by channel stacking were not included in the analyses and sub-conductance states were also rare and excluded from the analysis.
The analysis of the dwell times for single-channel currents was performed by fitting a mixture of exponential components to the open time distributions. These defined the mean open times and their relative proportions (area of the components) based on using a Levenberg-Marquardt non-linear least-squares routine (WinEDR ver 3.8.7, courtesy of J Dempster, University of Strathclyde).

α1β3γ2L receptors = tested on: T3, α1β3γ2L receptors; experiment: Quantification of spontaneous activity (Ispont) in HEK cells, whole-cell patch clamp; type: cell-based, mouse; conditions: α1β3γ2L THIP (Fig. 1d); THIP 3 mM, PTX 100 µM; individual cells
T3 construct: expressed in transfected cells; host or cells: HEK 293
From the text: as §1, §2, §3, §4

α4β3δ receptors = biological target: T4, α4β3δ receptors (UniProt P18506+P63080+Q9D6F4); type: cell-based, mouse; conditions: for Ispont in the presence of modulator: PS 10 µM (Fig. 6c)
T4 construct: expressed in transfected cells; host or cells: HEK 293
T4 sequence (Q9D6F4 36-552): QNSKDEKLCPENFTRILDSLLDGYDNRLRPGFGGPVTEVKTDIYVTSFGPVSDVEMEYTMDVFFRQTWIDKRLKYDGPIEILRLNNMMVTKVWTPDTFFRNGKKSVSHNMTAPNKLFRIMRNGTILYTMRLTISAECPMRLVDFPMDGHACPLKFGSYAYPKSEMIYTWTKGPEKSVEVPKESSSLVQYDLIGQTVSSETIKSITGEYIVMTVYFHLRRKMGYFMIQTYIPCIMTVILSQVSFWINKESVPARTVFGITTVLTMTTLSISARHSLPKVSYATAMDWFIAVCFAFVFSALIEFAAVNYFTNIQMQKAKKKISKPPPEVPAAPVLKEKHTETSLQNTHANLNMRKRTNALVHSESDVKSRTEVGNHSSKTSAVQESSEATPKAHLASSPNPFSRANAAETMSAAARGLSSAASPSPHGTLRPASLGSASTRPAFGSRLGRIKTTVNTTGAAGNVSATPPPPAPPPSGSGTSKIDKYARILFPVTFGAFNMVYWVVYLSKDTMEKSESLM
T4 sequence (P63080 26-473): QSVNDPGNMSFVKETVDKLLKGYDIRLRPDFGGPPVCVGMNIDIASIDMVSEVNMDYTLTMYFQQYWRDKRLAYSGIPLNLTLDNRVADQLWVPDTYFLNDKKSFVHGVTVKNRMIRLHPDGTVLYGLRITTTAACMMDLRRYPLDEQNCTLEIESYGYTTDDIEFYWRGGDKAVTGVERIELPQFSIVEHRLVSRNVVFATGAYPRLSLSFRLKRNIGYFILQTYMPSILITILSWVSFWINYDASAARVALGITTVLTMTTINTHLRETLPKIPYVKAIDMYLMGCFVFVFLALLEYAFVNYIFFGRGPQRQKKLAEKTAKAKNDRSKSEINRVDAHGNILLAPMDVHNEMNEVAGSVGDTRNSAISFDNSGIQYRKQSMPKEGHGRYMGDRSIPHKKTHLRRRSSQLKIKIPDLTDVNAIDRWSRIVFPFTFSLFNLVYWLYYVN
T4 sequence (P18506 25-449): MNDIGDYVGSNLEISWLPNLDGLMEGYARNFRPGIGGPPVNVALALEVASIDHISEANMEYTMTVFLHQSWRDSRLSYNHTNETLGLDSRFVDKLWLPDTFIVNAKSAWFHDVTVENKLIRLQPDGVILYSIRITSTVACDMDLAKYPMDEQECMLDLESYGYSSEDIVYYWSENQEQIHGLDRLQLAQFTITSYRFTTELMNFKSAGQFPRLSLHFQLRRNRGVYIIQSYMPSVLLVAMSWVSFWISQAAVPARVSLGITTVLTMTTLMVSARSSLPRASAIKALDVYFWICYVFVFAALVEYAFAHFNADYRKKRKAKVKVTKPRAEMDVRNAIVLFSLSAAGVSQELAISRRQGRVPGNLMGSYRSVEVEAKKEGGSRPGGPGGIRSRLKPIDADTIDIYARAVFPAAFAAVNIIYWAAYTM
From the text: as §1, §2, §3, §4

α4^Q246Mβ3δ receptors = tested on: T5, α4^Q246Mβ3δ receptors; experiment: Quantification of spontaneous activity (Ispont) in HEK cells, whole-cell patch clamp; type: cell-based, mouse; conditions: α4Q246Mβ3δ, PS 10 µM (Fig. 6c)
T5 construct: expressed in transfected cells; host or cells: HEK 293
From the text: as §1, §2, §3, §4

α4β3^S409Aδ receptors = tested on: T6, α4β3^S409Aδ receptors; experiment: as above; type: cell-based, mouse; conditions: α4β3S409Aδ, PS 10 µM (Fig. 6c)
T6 construct: expressed in transfected cells; host or cells: HEK 293
From the text: as §1, §2, §3, §4

[3] = tested on: cultured hippocampal neurons; experiment: Voltage clamp of spontaneous/tonic GABAAR currents in transfected cultured hippocampal neurons; type: cell-based, rat; conditions: gabazine 1 μM
Method: This media was replaced 2 h later with neurobasal-A media supplemented with 1% v/v B-27, 50 units/ml penicillin-G, 50 µg/ml streptomycin, 0.5% v/v glutamax and 35 mM glucose. These cells were transfected 6–8 days later using either the calcium phosphate protocol described above, or Effectene with a protocol as described by the manufacturer (Qiagen) using a total 0.8 μg of cDNA per coverslip. […] Neurons were used for electrophysiological recording or confocal imaging 5–9 days later.
as §2, §6

[4] = PTX added after Gabazine, individual cells
[5] = Gabazine alone, individual cells

Method for β3 homomeric receptors: HEK 293 cells were maintained in Dulbecco’s modified Eagle’s medium supplemented with 10% v/v heat-inactivated fetal calf serum, 100 units/ml penicillin-G and 100 µg/ml streptomycin and incubated at 37 °C in humidified 95% air/5% CO2. […] Cells were maintained within a passage range of P12–35. Dissociated HEK cells were plated onto 22 mm glass coverslips (VWR) coated in poly-L-lysine (Sigma). Cells were transfected >1 h later using a calcium phosphate protocol whereby a transfection solution was prepared consisting of 20 μl of 340 mM CaCl2, 24 μl of 2× HBS (50 mM HEPES, 280 mM NaCl, 2.8 mM Na2HPO4) and 4 μg cDNA per coverslip. […] Cells were recorded from 24–48 h later.
For all electrophysiological experiments, cells were visualised using a Nikon Eclipse E600FN microscope. Whole-cell currents were recorded using an Axopatch 200B amplifier and digitised using a Digidata 1322 A (Axon Instruments). […]
HEK cells were recorded from using borosilicate glass electrodes with resistances ~3–5 MΩ when filled with an internal solution containing (mM): 1 MgCl2, 140 KCl, 11 EGTA, 10 HEPES, 1 CaCl2, 2 K2ATP, pH 7.2. Osmolarity was 300 ± 20 mOsm/L, measured using a vapour pressure osmometer (Model 5520, Wescor Inc). […]

CC(=O)[C@H]1CC[C@H]2[C@@H]3CC[C@H]4C[C@H](O)CC[C@]4(C)[C@H]3CC[C@]12C [allopregnanolone]
Ispont in the presence of modulator (α4β2δ receptor; AP 100 nM (Fig. 6b), listed as AP): 0% and 0.09895% and 0.3946%

picrotoxin [PTX]
Change in holding current ([1]; PTX 100 μM after gabazine): large reduction in holding current | tonic current change with +PTX, Fig. 10a [1, 4]: 0.1792 and 0.4018 and 0.1492 and 0.2163 and 0.07528 and 0.1359 and 0.2209 and 0.2596 and 0.5835 | tonic current change with +PTX, Fig. 10b [2, 4]: 0.2529 and 0.032 and 0.04 and 0.1019 and 0.1492 and 0.1027 and 0.03878 and 0.06433 and 0.1595 and 0.03636 | Effect on residual tonic current ([2]; dLGN thalamic relay neurons, PTX 100 μM after gabazine): blocked | Effect on spontaneous single-channel currents (α4β3δ GABAARs; 100 μM PTX): blocked

CCCC(C)C1(CC)C(=O)NC(=O)NC1=O (centres unmarked) [pentobarbital]
Whole-cell current evoked by pentobarbital (β3 homomeric receptors; β3, 100 µM pentobarbital, n = 11): 220 ± 94 pA

Oc1noc2c1CCNC2 [THIP, 4,5,6,7-tetrahydroisoxazolo[5,4-c]pyridin-3-ol]
Ispont, IMax from THIP (α1β3γ2L receptors): 1.055% and 0.4509% and 8.753% and 3.449% and 0.8828% and 1.773% | Ispont, IMax from THIP (α4β3δ receptors; α4β3δ THIP (Fig. 1d), THIP 3 mM, PTX 100 µM, individual cells): 3.988% and 7.572% and 10.0793% and 6.822% and 17.8571% and 28.6432% and 15.8524% | IMax compared to GABA (α4β3δ receptors; α4β3δ, THIP 3 mM): larger

pregnenolone sulphate [Pregnenolone sulfate]
Ispont in the presence of modulator (α4^Q246Mβ3δ receptors): reduced | Ispont in the presence of modulator (α4^Q246Mβ3δ receptors; listed as PS): 3.665% and 9.322% and 7.162% and 6.1828% and 3.237% and 4.8719% and 4.011% | Ispont in the presence of modulator (α4β3^S409Aδ receptors): reduced | Ispont in the presence of modulator (α4β3^S409Aδ receptors; listed as PS): 0.7651% and 0.3749% and 0.1269% and 0.9165% and 2.143% and 0.1295% and 1.652% | Ispont in the presence of modulator (α4β3δ receptors; α4β3δ): reduced | Ispont in the presence of modulator (α4β3δ receptors; α4β3δ, listed as PS): 5.825% and 4.865% and 6.452% and 3.37% and 4.547% and 9.251% and 6.244% and 4.926%

COc1ccc(-c2ccc(=N)n(CCCC(=O)O)n2)cc1 [gabazine]
Change in holding current ([1]; gabazine 20 µM): small increments in holding current | tonic current change with Gabazine, Fig. 10a [1, 5]: -0.04645 and -0.07728 and -0.0199 and 0.08319 and 0 and -0.01133 and -0.01699 and -0.02885 and -0.01144 | tonic current change with Gabazine, Fig. 10b [2, 5]: 0.2002 and 0.032 and 0.025 and 0.02996 and 0.07463 and 0.08562 and 0.04525 and 0.03574 and -0.03067 and 0.01818 | Effect on tonic current ([2]; dLGN thalamic relay neurons, gabazine 20 µM): part-inhibited | Effect on spontaneous holding current (α4β3δ receptors; cells expressing α4, β3 and δ, gabazine 1 µM): behaved as an inverse agonist | Effect on holding current ([3]; eGFP-transfected neurons): small agonist effect | Effect on holding current ([3]; β3-transfected neurons): partial antagonism | Effect on spontaneous holding current (β3 homomeric receptors; β3 alone, gabazine 1 µM): but not with β3 alone

C[C@]12CC[C@@H](O)C[C@H]1CC[C@@H]1[C@@H]2CC[C@]2(C)[C@@H](C(=O)CO)CC[C@@H]12 [THDOC, tetrahydro-deoxycorticosterone]
Ispont in the presence of modulator (α4β2δ receptor; THDOC 100 nM (Fig. 6b)): 0% and 0.09895% and 0.3365% | Area A1 of open time distribution (row head printed 'thdoc t2', r12) (α4β3δ GABAARs): did not significantly affect | Area A2 of open time distribution (thdoc t2, r14) (α4β3δ GABAARs): did not significantly affect | Area A1 of open time distribution (row head printed 'thdoc t2', r12) (α4β3δ GABAARs; listed as thdoc): 7.49E+01 and 60.19 and 6.51E+01 and 8.65E+01 and 4.84E+01 and 64.73 and 86.6 and 77.97 and 79.7 and 73.6 | Area A2 of open time distribution (thdoc t2, r14) (α4β3δ GABAARs; listed as thdoc): 25.1 and 39.81 and 34.92 and 13.51 and 51.6 and 35.27 and 13.4 and 22.03 and 20.3 and 26.4
